From the supplement of paper PMC10627819

Tests used:
[1] = tested on: S. aureus Newman; test: Bliss interaction score (quartile over a dose matrix) (fitness difference); higher = more antagonism (negative = synergy)
Method in brief: (§1)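 The Bliss score takes observed fitness and subtracts the expected fitness, calculated as a product of single-drug fitness values. Those single-drug values were inferred from the combination data. Fitness is OD595 at entry into stationary phase divided by the plate's robust no-drug mean, capped at 1, and the score is summarised by quartiles across technical, biological and donor/recipient replicates.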

[2] = tested on: S. aureus DSM 20231; test: as above
Method in brief: as §1

[3] = tested on: B. subtilis 168; test: as above
Method in brief: as §1

[4] = tested on: S. pneumoniae D39V; test: as above
Method in brief: as §1

[5] = tested on: S. aureus Newman; test: fitness (endpoint OD595 vs no drug) (fraction); higher = more growth
Method in brief: (§2)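 Each well of a 384-well plate received 30 µl of culture at OD595 0.01, or 55 µl for S. pneumoniae. TSB, LB Lennox or CY served as media at 37 °C. OD595 was taken every 30 min for 14 h and corrected by subtracting the first reading. Fitness is the optical density at stationary-phase entry divided by the robust mean of no-drug controls, capped at 1.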

[6] = tested on: S. aureus DSM 20231; test: as above
Method in brief: as §2

[7] = tested on: B. subtilis 168; test: as above
Method in brief: as §2

[8] = tested on: S. pneumoniae D39V; test: as above
Method in brief: as §2
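For Bliss interaction score (quartile over a dose matrix) in this document: first quartile when negative (synergy) and third quartile when positive (antagonism).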

CCC[C@@H]1C[C@@H](C(=O)N[C@@H]([C@H]2O[C@H](SC)[C@H](O)[C@@H](O)[C@H]2O)[C@H](C)Cl)N(C)C1 [Clindamycin] + Cc1ncc([N+](=O)[O-])n1CCO [Metronidazole]
Conditions	Bliss interaction score
[1]	0.0887
[2]	0.0542
[3]	0.0367
[4]	0.0971

Conditions	fitness
[5], first compound 0.0312 µg/mL, partner 0.625 µg/mL	0.666
[5], first compound 0.0312 µg/mL, partner 1.25 µg/mL	0.801
[5], first compound 0.0312 µg/mL, partner 2.5 µg/mL	0.821
[5], first compound 0.0625 µg/mL, partner 1.25 µg/mL	0.425
[5], first compound 0.0625 µg/mL, partner 2.5 µg/mL	0.444
[5], first compound 0.125 µg/mL, partner 0.625 µg/mL	0.0588
[5], first compound 0.125 µg/mL, partner 1.25 µg/mL	0.056
[5], first compound 0.125 µg/mL, partner 2.5 µg/mL	0.0505
[6], first compound 0.125 µg/mL, partner 0.625 µg/mL	0.0566
[6], first compound 0.125 µg/mL, partner 1.25 µg/mL	0.0685
[6], first compound 0.125 µg/mL, partner 2.5 µg/mL	0.0748
[7], first compound 0.0625 µg/mL, partner 0.625 µg/mL	0.572
[7], first compound 0.0625 µg/mL, partner 1.25 µg/mL	0.54
[7], first compound 0.0625 µg/mL, partner 2.5 µg/mL	0.548
[7], first compound 0.125 µg/mL, partner 0.625 µg/mL	0.403
[7], first compound 0.125 µg/mL, partner 1.25 µg/mL	0.38
[7], first compound 0.125 µg/mL, partner 2.5 µg/mL	0.373
[7], first compound 0.25 µg/mL, partner 0.625 µg/mL	0.38
[7], first compound 0.25 µg/mL, partner 1.25 µg/mL	0.381
[7], first compound 0.25 µg/mL, partner 2.5 µg/mL	0.369
[8], first compound 0.0125 µg/mL, partner 1.25 µg/mL	0.815
[8], first compound 0.0125 µg/mL, partner 2.5 µg/mL	0.827
[8], first compound 0.0125 µg/mL, partner 5 µg/mL	0.828
[8], first compound 0.015 µg/mL, partner 1.073 µg/mL	0.956
[8], first compound 0.015 µg/mL, partner 2.145 µg/mL	0.912
[8], first compound 0.015 µg/mL, partner 4.29 µg/mL	0.841
[8], first compound 0.025 µg/mL, partner 1.25 µg/mL	0.581
[8], first compound 0.025 µg/mL, partner 2.5 µg/mL	0.553
[8], first compound 0.025 µg/mL, partner 5 µg/mL	0.518
[8], first compound 0.03 µg/mL, partner 1.073 µg/mL	0.833
[8], first compound 0.03 µg/mL, partner 2.145 µg/mL	0.839
[8], first compound 0.03 µg/mL, partner 4.29 µg/mL	0.771
[8], first compound 0.05 µg/mL, partner 1.25 µg/mL	0.269
[8], first compound 0.05 µg/mL, partner 2.5 µg/mL	0.242
[8], first compound 0.05 µg/mL, partner 5 µg/mL	0.246
[8], first compound 0.06 µg/mL, partner 1.073 µg/mL	0.61
[8], first compound 0.06 µg/mL, partner 2.145 µg/mL	0.682
[8], first compound 0.06 µg/mL, partner 4.29 µg/mL	0.642

fitness, one replicate
Conditions	first compound 0.0039 µg/mL	first compound 0.0078 µg/mL	first compound 0.0156 µg/mL	first compound 0.0312 µg/mL	first compound 0.0625 µg/mL	first compound 0.125 µg/mL
[5], partner 0.781 µg/mL	–	–	–	0.71	0.533	0.0936
[5], partner 1.562 µg/mL	–	–	–	0.72	0.582	0.13
[5], partner 3.124 µg/mL	–	–	–	0.688	0.595	0.113
[7], partner 0.625 µg/mL	0.918	0.528	0.83	–	–	–
[7], partner 1.25 µg/mL	0.984	0.804	0.842	–	–	–
[7], partner 2.5 µg/mL	0.907	0.547	0.867	–	–	–

CCC[C@@H]1C[C@@H](C(=O)N[C@@H]([C@H]2O[C@H](SC)[C@H](O)[C@@H](O)[C@H]2O)[C@H](C)Cl)N(C)C1 [Clindamycin] + Cc1onc(-c2ccccc2)c1C(=O)N[C@@H]1C(=O)N2[C@@H]1SC(C)(C)[C@@H]2C(=O)O [Oxacillin]
Conditions	Bliss interaction score
[1]	0.09
[2]	0.0814
[3]	0.0308
[4]	0.105

Conditions	fitness
[5], first compound 0.0312 µg/mL, partner 0.0156 µg/mL	0.71
[5], first compound 0.0312 µg/mL, partner 0.0312 µg/mL	0.673
[5], first compound 0.0312 µg/mL, partner 0.0625 µg/mL	0.557
[5], first compound 0.0625 µg/mL, partner 0.0625 µg/mL	0.31
[5], first compound 0.125 µg/mL, partner 0.0156 µg/mL	0.189
[5], first compound 0.125 µg/mL, partner 0.0312 µg/mL	0.105
[5], first compound 0.125 µg/mL, partner 0.0625 µg/mL	0.0973
[6], first compound 0.0312 µg/mL, partner 0.0312 µg/mL	0.486
[6], first compound 0.0312 µg/mL, partner 0.0625 µg/mL	0.355
[6], first compound 0.0625 µg/mL, partner 0.0156 µg/mL	0.0861
[6], first compound 0.0625 µg/mL, partner 0.0312 µg/mL	0.0909
[6], first compound 0.0625 µg/mL, partner 0.0625 µg/mL	0.0694
[6], first compound 0.125 µg/mL, partner 0.0156 µg/mL	0.0621
[6], first compound 0.125 µg/mL, partner 0.0312 µg/mL	0.0625
[6], first compound 0.125 µg/mL, partner 0.0625 µg/mL	0.0779
[7], first compound 0.0625 µg/mL, partner 0.002 µg/mL	0.546
[7], first compound 0.0625 µg/mL, partner 0.004 µg/mL	0.531
[7], first compound 0.0625 µg/mL, partner 0.008 µg/mL	0.524
[7], first compound 0.125 µg/mL, partner 0.002 µg/mL	0.396
[7], first compound 0.125 µg/mL, partner 0.004 µg/mL	0.367
[7], first compound 0.125 µg/mL, partner 0.008 µg/mL	0.367
[7], first compound 0.25 µg/mL, partner 0.002 µg/mL	0.382
[7], first compound 0.25 µg/mL, partner 0.004 µg/mL	0.372
[7], first compound 0.25 µg/mL, partner 0.008 µg/mL	0.361
[8], first compound 0.0125 µg/mL, partner 0.005 µg/mL	0.754
[8], first compound 0.0125 µg/mL, partner 0.01 µg/mL	0.786
[8], first compound 0.0125 µg/mL, partner 0.02 µg/mL	0.804
[8], first compound 0.015 µg/mL, partner 0.01 µg/mL	0.854
[8], first compound 0.015 µg/mL, partner 0.02 µg/mL	0.817
[8], first compound 0.015 µg/mL, partner 0.04 µg/mL	0.546
[8], first compound 0.025 µg/mL, partner 0.005 µg/mL	0.561
[8], first compound 0.025 µg/mL, partner 0.01 µg/mL	0.521
[8], first compound 0.025 µg/mL, partner 0.02 µg/mL	0.524
[8], first compound 0.03 µg/mL, partner 0.01 µg/mL	0.7
[8], first compound 0.03 µg/mL, partner 0.02 µg/mL	0.677
[8], first compound 0.03 µg/mL, partner 0.04 µg/mL	0.423
[8], first compound 0.05 µg/mL, partner 0.005 µg/mL	0.278
[8], first compound 0.05 µg/mL, partner 0.01 µg/mL	0.291
[8], first compound 0.05 µg/mL, partner 0.02 µg/mL	0.29

fitness, [7], one replicate
Conditions	first compound 0.0039 µg/mL	first compound 0.0078 µg/mL	first compound 0.0156 µg/mL	first compound 0.0625 µg/mL	first compound 0.125 µg/mL	first compound 0.25 µg/mL
partner 0.0078 µg/mL	0.953	0.903	0.828	–	–	–
partner 0.0155 µg/mL	0.963	0.897	0.805	–	–	–
partner 0.031 µg/mL	0.947	0.865	0.822	–	–	–
partner 0.075 µg/mL	–	–	–	0.237	0.0774	0.0582
partner 0.15 µg/mL	–	–	–	0.063	0.066	0.0705
partner 0.3 µg/mL	–	–	–	0.0546	0.0304	0.0517

CCC[C@@H]1C[C@@H](C(=O)N[C@@H]([C@H]2O[C@H](SC)[C@H](O)[C@@H](O)[C@H]2O)[C@H](C)Cl)N(C)C1 [Clindamycin] + O=C(O[C@@H]1Cc2c(O)cc(O)cc2O[C@@H]1c1cc(O)c(O)c(O)c1)c1cc(O)c(O)c(O)c1 [EGCG]
Conditions	Bliss interaction score
[1]	-0.0691
[2]	0.0371
[3]	0.136
[4]	-0.108

fitness
Conditions	partner 6.25 µg/mL	partner 12.5 µg/mL	partner 25 µg/mL	partner 50 µg/mL
[5], first compound 0.0312 µg/mL	–	0.603	0.587	0.598
[5], first compound 0.125 µg/mL	–	–	0.0771	0.046
[6], first compound 0.0312 µg/mL	–	0.485	0.49	0.416
[6], first compound 0.0625 µg/mL	–	–	0.172	0.115
[6], first compound 0.125 µg/mL	–	0.0823	0.0417	0.0383
[7], first compound 0.25 µg/mL	0.356	0.337	0.119	–
[8], first compound 0.0125 µg/mL	–	0.703	0.686	0.605
[8], first compound 0.015 µg/mL	–	0.734	0.661	0.538
[8], first compound 0.025 µg/mL	–	0.466	0.405	0.392
[8], first compound 0.03 µg/mL	–	0.466	0.414	0.3
[8], first compound 0.05 µg/mL	–	0.173	0.168	0.178
[8], first compound 0.06 µg/mL	–	0.312	0.315	0.22

fitness, [7], one replicate
Conditions	first compound 0.0039 µg/mL	first compound 0.0078 µg/mL	first compound 0.0156 µg/mL
partner 6.25 µg/mL	0.986	0.862	0.85
partner 12.5 µg/mL	0.511	0.402	0.383
partner 25 µg/mL	0.401	0.362	0.374
